The values that follow come from patent publication US10537566B2, “Combinations comprising siponimod and laquinimod for the treatment of multiple sclerosis” (Novartis AG, priority 2014, dated 2020).

Structures are written as SMILES. Read-outs that look alike come from different tables or passages of the source.

Data set [1] concerns experimental autoimmune encephalomyelitis (EAE). In words: MOG/CFA/Pertussis toxin-induced EAE, treatment initiated during ongoing CNS damage. The settings on record: 0.3 mg/kg siponimod, 10 mg/kg laquinimod or both, daily for 21 days after infiltration of immune cells into CNS; p<0.05. The data set is classed as in vivo, C57Bl/6 mice. The protocol:
(§1) Female C57Bl/6 mice were subcutaneously immunized with 200 μg recombinant MOG1-125 in CFA followed by one i.p. injection of 100 ng Pertussis toxin. Two days later an additional i.p. injection of 100 ng pertussis toxin was administered. Following infiltration of immune cells into the CNS to initiate tissue damage, the mice were randomized to either vehicle, 0.3 mg/kg siponimod, 10 mg/kg laquinimod or 0.3 mg/kg siponimod+10 mg/kg laquinimod and treated daily with said doses for 21 days.

Data set [2] has the same test system. The experiment in a line: MOG/CFA/Pertussis toxin-induced EAE, treatment initiated after severe CNS damage. The note with it: 0.3 mg/kg siponimod, 10 mg/kg laquinimod or both, daily for 30 days, from three days after first clinical symptoms; p<0.05. It counts as in vivo, C57Bl/6 mice. The protocol:
Female C57Bl/6 mice were subcutaneously immunized with 200 μg recombinant MOG1-125 in CFA followed by one i.p. injection of 100 ng Pertussis toxin. Two days later an additional i.p. injection of 100 ng pertussis toxin was administered. Three days after the first clinical symptoms, the mice were randomized to either vehicle, 0.3 mg/kg siponimod, 10 mg/kg laquinimod or 0.3 mg/kg siponimod+10 mg/kg laquinimod and treated daily with said doses for 30 days. Treatment initiated after severe CNSneurological disease and tissue damage has occurred. More specifically after that a severe CNS damage, which can be characterized by hind limb paralysis, had already occurred.

The subject of data set [3] is RRMS. The note with it: phase III, oral 0.6 mg once daily over 24 months; cited from earlier work.
A further data set deals with lymphocytes. The experiment in a line: Lymphocyte reduction in MOG/CFA/Pertussis toxin-immunized C57/Bl6 mice. The note with it: 0.3 mg/kg siponimod, 10 mg/kg laquinimod or both, daily for 29 days, from three days after first clinical symptoms; p<0.05. The data set is classed as in vivo, C57Bl/6 mice. The protocol: as §1, with “Three days after” for “Following infiltration of immune cells into”, “first clinical symptoms,” for “CNS to initiate tissue damage,”, “29” for “21”, “days. The MOG/CFA/Pertussis toxin-induced experimental autoimmune encephalomyelitis model in C57/Bl6 mice is described in Quancard et al (Chem Biol. 19(9):1142-51, 2012).” for “days.”

Data set [4] relates to RRMS. The note with it: phase II, oral doses of 0.25 mg, 0.5 mg, 1.25 mg, 2 mg and 10 mg; cited from earlier work.
Data set [5] is described as follows: Level of siponimod in blood, brain and cerebrospinal fluid (CSF) in mice. The settings on record: female, mouse, C57Bl/6 mice, mean (SEM). The data set is classed as in vivo. The protocol: Female C57Bl/6 mice were treated daily with 3 mg/kg siponimod, p.o. for 8 days. 8 hours after the last administration, animals were sacrificed and the levels of siponimod were measured in blood, brain and CSF.
Shown are mean values of 3-5 animals and standard error of the mean (in brackets).

On to `CCN(C(=O)c1c(O)c2c(Cl)cccc2n(C)c1=O)c1ccccc1` [laquinimod, 5-chloro-N-ethyl-4-hydroxy-1-methyl-2-oxo-N-phenyl-1,2-dihydroquinoline-3-carboxamide], for which the “daily disease severity / neurological paralysis / disease burden (FIG. 4)” value in data set [1] is “did not significantly improve daily disease severity”. The “disease burden (cumulative EAE score) (FIG. 2)” value in data set [2] is recorded as “did not significantly improve disease burden”. The “efficacy in treating RRMS” value in the data set with RRMS [3] is “showed efficacy”. The “effect on lymphocytes (FIG. 1)” value in the data set on lymphocytes was “did not significantly reduce lymphocytes”.

Take `CCc1cc(/C(C)=N/OCc2ccc(C3CCCCC3)c(C(F)(F)F)c2)ccc1CN1CC(C(=O)O)C1` [siponimod, 1-{4-[1-((E)-4-cyclohexyl-3-trifluoromethyl-benzyloxyimino)-ethyl]-2-ethyl-benzyl}-azetidine-3-carboxylic acid]: the “daily disease severity / neurological paralysis / disease burden (FIG. 4)” value in data set [1] is reported as “transiently reduced neurological paralysis”. For the same compound, the “efficacy in treating RRMS” value in the data set with RRMS [4] is “dose-dependent efficacy”. Further, the “disease burden (cumulative EAE score) (FIG. 2)” value in data set [2] is “reduced disease burden”. Also, the concentration at 8 h in data set [5] (CSF, oral, EAE, 3 mg/kg qd, day 8, 8 h, read-out: conc siponimod (nM) (SEM) CSF) came out at 17.7 nM; in data set [5] (CSF, po, 3 mg/kg qd p.o., day 8, 8 h after last administration, read-out: conc siponimod (nM) (SEM) CSF), 7.2 nM; in data set [5] (blood, oral, EAE, 3 mg/kg qd, day 8, 8 h, read-out: conc siponimod (nM) (SEM) Blood), 1600 nM; in data set [5] (blood, po, 3 mg/kg qd p.o., day 8, 8 h after last administration, read-out: conc siponimod (nM) (SEM) Blood) it was 973 nM; in data set [5] (brain, oral, EAE, 3 mg/kg qd, day 8, 8 h, read-out: conc siponimod (nM) (SEM) Brain), 9190 nM; in data set [5] (brain, po, 3 mg/kg qd p.o., day 8, 8 h after last administration, read-out: conc siponimod (nM) (SEM) Brain) it was 5550 nM. Also, in the data set on lymphocytes, the “effect on lymphocytes (FIG. 1)” value is on record as “reduced lymphocytes”.
